According to ChEMBL document CHEMBL5465560, “Selectivity Literature for EUbOPEN Chemogenomic Library” (2024):
One block for each molecule: values may come before it.

Tests used:
[1] = biological target: T1, Ephrin type-A receptor 1 (Homo sapiens) (UniProt P21709); conditions: at 10 µM
T1 sequence (whole entry): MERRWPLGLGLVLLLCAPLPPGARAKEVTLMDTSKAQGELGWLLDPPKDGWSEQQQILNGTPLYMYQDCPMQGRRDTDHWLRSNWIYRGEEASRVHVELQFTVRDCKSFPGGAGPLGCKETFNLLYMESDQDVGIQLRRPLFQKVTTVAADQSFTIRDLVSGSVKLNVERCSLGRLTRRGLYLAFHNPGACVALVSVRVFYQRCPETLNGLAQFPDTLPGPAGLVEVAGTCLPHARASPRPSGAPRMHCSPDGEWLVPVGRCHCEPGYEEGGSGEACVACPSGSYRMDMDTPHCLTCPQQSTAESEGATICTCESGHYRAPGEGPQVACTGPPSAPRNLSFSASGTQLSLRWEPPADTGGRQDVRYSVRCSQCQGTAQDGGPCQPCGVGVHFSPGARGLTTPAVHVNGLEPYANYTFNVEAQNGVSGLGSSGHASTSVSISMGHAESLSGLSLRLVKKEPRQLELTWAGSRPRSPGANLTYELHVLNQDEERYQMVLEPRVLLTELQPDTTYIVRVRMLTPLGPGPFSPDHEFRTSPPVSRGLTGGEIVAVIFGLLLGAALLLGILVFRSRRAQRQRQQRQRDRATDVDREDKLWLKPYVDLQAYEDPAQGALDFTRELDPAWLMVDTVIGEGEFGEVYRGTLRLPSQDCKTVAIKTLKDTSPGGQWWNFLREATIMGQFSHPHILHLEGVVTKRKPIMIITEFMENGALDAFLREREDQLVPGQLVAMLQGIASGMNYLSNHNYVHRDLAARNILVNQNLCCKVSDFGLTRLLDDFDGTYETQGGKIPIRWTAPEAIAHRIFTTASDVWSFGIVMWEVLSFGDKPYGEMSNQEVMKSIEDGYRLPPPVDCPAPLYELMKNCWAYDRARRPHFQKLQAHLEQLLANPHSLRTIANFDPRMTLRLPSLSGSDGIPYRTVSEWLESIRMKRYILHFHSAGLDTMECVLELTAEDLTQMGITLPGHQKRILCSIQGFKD

[2] = biological target: DNA (cytosine-5)-methyltransferase 1 (Homo sapiens) (UniProt P26358); experiment: Selectivity interaction (Methyltransferase screen (Scintillation proximity assays)) EUB0000255b DNMT1
Chain of DNA (cytosine-5)-methyltransferase 1 (Homo sapiens) (P26358 whole entry): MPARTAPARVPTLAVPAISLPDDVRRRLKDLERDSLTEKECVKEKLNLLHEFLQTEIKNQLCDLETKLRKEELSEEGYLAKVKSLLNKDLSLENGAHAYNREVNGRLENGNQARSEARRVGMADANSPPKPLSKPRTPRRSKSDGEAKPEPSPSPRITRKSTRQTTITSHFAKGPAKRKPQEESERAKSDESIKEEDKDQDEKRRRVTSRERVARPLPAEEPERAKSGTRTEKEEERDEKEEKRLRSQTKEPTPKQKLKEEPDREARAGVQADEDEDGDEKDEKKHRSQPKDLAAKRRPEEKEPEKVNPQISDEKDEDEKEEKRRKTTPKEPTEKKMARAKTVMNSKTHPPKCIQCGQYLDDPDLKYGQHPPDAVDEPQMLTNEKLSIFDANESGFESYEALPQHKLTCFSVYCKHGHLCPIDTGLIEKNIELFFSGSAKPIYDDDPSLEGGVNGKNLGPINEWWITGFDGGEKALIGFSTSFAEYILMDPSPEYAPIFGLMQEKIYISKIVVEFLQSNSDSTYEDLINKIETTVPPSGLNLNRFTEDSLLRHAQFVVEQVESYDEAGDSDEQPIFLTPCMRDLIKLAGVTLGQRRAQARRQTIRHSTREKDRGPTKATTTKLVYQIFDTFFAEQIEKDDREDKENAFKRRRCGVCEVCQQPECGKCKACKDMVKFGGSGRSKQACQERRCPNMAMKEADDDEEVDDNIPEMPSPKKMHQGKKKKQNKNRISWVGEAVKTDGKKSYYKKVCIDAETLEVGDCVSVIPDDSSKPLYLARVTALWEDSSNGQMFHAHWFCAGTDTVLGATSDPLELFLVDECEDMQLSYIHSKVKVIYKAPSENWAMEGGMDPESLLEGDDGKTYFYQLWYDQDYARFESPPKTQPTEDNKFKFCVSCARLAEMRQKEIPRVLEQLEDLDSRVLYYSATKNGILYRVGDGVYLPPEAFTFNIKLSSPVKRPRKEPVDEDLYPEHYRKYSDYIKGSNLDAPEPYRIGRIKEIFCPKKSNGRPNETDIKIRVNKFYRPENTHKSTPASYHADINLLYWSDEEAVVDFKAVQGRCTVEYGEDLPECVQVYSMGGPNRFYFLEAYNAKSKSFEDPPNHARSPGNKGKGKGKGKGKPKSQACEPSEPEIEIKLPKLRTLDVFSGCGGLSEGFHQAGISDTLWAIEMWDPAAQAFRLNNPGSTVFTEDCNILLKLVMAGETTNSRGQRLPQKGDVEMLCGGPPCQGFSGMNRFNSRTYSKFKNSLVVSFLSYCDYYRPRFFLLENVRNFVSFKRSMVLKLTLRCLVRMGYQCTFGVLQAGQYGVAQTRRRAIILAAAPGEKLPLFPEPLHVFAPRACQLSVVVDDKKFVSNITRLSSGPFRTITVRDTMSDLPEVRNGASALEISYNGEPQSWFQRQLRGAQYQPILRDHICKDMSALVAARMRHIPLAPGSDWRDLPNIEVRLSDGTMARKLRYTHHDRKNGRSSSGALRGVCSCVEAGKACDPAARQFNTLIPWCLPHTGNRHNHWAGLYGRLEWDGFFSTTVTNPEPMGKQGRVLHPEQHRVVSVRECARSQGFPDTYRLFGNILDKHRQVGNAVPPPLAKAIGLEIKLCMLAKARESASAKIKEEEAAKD

[3] = biological target: Serine/threonine-protein kinase B-raf (Homo sapiens) (UniProt P15056); conditions: at 10 µM
[4] = biological target: Tyrosine-protein kinase JAK1 (Homo sapiens, UniProt P23458); experiment: Selectivity interaction (KinomeScan (DiscoverX)) EUB0000595a JAK1; conditions: at 10 µM
[5] = tested on: Phosphatidylinositol 4,5-bisphosphate 3-kinase catalytic subunit alpha isoform (Homo sapiens), P42336 [E545A]; conditions: at 10 µM
[6] = biological target: Phosphatidylinositol 4,5-bisphosphate 3-kinase catalytic subunit gamma isoform (Homo sapiens) (UniProt P48736); experiment: Selectivity interaction (ActivX KiNativ screen (kinase selectivity in THP-1 cell lysates)) EUB0000639a PIK3CG; assay type: subcellular; conditions: lysate
Chain of Phosphatidylinositol 4,5-bisphosphate 3-kinase catalytic subunit gamma isoform (Homo sapiens) (P48736 whole entry, looked up, canonical isoform): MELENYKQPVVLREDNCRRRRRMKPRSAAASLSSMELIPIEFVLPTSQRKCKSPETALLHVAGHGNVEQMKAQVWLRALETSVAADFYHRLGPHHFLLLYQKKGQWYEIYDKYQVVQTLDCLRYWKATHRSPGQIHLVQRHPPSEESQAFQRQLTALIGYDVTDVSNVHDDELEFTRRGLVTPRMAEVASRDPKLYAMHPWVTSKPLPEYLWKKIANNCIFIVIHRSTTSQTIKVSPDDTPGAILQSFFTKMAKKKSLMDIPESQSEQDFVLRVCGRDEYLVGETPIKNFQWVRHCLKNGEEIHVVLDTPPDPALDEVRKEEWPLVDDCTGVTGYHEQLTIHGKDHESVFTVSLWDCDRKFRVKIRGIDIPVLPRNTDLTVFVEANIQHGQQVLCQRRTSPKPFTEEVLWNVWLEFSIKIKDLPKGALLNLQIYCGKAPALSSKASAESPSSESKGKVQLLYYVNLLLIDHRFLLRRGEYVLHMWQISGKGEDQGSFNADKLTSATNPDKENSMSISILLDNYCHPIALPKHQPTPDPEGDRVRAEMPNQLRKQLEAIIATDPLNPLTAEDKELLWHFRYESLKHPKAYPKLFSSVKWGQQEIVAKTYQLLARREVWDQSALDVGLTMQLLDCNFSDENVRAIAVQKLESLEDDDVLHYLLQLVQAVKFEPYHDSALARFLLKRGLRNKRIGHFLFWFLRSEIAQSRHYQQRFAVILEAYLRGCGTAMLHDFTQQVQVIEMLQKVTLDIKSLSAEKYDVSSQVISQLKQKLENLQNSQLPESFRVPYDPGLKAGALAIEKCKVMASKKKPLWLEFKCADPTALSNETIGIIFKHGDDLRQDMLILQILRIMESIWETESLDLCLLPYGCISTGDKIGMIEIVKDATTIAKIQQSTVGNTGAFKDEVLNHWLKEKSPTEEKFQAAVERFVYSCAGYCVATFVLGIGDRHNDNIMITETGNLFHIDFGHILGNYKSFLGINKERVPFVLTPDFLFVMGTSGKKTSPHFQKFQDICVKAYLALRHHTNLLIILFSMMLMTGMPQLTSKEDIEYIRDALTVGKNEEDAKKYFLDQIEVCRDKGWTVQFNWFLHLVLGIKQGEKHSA

[7] = biological target: 5'-AMP-activated protein kinase catalytic subunit alpha-2 (Homo sapiens) (UniProt P54646); experiment: Selectivity interaction (ActivX KiNativ screen (kinase selectivity in THP-1 cell lysates)) EUB0000639a PRKAA2; assay type: subcellular; conditions: lysate, at 1 µM
[8] = biological target: Dual specificity mitogen-activated protein kinase kinase 1 (Homo sapiens, UniProt Q02750); experiment: Selectivity interaction (ProQinase) EUB0000171b MAP2K1
Chain of Dual specificity mitogen-activated protein kinase kinase 1 (Q02750 whole entry): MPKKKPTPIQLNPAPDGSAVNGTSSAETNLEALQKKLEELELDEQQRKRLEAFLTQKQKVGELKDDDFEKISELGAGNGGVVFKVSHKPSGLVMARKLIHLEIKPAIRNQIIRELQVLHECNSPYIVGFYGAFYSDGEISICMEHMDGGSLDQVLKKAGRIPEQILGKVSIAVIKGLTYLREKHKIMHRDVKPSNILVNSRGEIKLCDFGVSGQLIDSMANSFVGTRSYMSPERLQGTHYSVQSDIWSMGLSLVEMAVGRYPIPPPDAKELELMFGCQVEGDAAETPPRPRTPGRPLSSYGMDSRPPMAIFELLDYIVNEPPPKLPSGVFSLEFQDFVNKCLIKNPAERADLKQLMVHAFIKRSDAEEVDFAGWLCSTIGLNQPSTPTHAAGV

[9] = biological target: Fibroblast growth factor receptor 4 (Homo sapiens, UniProt P22455); experiment: Selectivity interaction (KinomeScan (DiscoverX)) EUB0001049a FGFR4; conditions: at 1 µM
Chain of Fibroblast growth factor receptor 4 (P22455 22-802 limits assumed): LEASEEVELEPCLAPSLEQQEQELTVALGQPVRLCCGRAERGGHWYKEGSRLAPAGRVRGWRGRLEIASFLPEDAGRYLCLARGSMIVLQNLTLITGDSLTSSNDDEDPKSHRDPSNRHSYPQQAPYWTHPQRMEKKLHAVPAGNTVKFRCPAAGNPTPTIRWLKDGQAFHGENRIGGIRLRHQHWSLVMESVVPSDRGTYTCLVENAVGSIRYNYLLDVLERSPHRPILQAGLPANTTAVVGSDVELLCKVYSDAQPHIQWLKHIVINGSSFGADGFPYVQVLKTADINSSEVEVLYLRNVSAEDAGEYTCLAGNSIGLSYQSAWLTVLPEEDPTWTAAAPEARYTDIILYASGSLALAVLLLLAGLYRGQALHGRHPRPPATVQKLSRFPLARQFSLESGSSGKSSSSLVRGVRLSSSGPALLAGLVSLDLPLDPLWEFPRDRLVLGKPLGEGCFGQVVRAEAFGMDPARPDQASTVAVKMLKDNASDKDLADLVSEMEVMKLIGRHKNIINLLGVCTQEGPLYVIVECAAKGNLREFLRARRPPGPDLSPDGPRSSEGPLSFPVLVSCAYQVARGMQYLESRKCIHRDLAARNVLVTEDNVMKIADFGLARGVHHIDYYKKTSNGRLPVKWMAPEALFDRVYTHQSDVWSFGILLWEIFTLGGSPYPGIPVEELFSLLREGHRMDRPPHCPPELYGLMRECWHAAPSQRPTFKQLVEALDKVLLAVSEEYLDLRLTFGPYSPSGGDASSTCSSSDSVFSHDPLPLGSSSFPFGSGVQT

[10] = biological target: Epithelial discoidin domain-containing receptor 1 (Homo sapiens) (UniProt Q08345); experiment: Selectivity interaction (KinomeScan (DiscoverX)) EUB0000666a DDR1; conditions: at 10 µM
Chain of Epithelial discoidin domain-containing receptor 1 (Homo sapiens) (Q08345 whole entry, the tested form may be a part): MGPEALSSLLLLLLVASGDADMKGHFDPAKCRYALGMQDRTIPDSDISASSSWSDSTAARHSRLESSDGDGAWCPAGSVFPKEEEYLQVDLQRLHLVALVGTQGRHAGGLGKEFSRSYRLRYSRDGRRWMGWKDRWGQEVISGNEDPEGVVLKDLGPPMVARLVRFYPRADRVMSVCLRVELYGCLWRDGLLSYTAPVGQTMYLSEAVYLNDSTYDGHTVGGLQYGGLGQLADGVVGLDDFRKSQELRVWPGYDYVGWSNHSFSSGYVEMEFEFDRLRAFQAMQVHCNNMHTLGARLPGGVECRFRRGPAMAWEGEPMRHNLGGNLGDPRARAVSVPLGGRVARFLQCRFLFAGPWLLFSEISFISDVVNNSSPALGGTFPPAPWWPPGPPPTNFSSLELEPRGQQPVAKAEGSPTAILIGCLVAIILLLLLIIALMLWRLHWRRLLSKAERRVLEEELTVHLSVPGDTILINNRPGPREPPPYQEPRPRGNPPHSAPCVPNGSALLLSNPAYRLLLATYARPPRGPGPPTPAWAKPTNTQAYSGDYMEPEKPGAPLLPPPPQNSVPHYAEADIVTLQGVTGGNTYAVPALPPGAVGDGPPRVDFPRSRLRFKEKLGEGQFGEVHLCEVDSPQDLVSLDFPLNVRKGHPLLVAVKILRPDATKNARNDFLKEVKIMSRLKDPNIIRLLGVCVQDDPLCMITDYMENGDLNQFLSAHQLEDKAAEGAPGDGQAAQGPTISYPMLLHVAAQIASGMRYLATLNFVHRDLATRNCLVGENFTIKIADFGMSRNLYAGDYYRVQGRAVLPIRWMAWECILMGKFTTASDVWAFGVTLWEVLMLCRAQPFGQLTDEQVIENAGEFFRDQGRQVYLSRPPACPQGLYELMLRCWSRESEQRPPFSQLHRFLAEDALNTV

[11] = biological target: T2, Non-receptor tyrosine-protein kinase TNK1 (Homo sapiens) (UniProt Q13470); experiment: Selectivity interaction (KinomeScan (DiscoverX)) EUB0000092b TNK1; conditions: at 10 µM
T2 sequence (whole entry): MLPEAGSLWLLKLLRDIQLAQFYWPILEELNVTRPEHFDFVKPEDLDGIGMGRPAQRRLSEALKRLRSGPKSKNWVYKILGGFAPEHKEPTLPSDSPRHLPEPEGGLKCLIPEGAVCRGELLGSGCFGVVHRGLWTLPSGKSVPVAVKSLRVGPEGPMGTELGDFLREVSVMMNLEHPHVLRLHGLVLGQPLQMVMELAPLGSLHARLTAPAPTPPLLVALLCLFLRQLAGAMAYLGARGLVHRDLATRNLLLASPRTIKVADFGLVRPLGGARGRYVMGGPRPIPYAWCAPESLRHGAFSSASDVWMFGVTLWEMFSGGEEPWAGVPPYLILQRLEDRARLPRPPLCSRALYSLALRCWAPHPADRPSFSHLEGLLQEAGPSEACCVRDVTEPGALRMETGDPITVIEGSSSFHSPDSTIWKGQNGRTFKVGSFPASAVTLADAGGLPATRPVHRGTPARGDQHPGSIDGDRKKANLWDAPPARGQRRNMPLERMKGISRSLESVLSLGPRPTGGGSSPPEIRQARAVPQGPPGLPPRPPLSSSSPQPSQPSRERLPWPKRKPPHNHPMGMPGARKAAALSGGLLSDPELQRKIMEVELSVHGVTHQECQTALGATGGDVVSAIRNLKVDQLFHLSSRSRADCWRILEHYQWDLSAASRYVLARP

% of control [1]: 100%
SMILES: CCN(CC)CCCCNc1ncc2cc(-c3cc(OC)cc(OC)c3)c(NC(=O)NC(C)(C)C)nc2n1

SMILES: COCCN1CCC(c2cc(CN(C)C(=O)c3cccc(Oc4ccccc4)c3)ccn2)CC1
% activity ([2]; at 1 µM): > 95%
% activity ([2]; at 10 µM): 79%

SMILES: CN(C)CCOc1ccc(-c2nc(-c3ccncc3)c(-c3ccc4c(c3)CC/C4=N\O)[nH]2)cc1
% of control [3]: 0%

SMILES: COCC(=O)NC/C=C/c1ccc2ncnc(Nc3ccc(Oc4ccc(C)nc4)c(C)c3)c2c1 [CP-724714]
% of control [4]: 100%
% of control [5]: 33%

% of inhibition ([6]; at 0.01 µM): 6.3%
% of inhibition ([6]; at 0.04 µM): 12%
% of inhibition ([6]; at 0.2 µM): 7.4%
% of inhibition ([6]; at 1 µM): 13.3%
% of inhibition ([6]; at 5 µM): 2.6%
% of inhibition [7]: -4.6%
SMILES: CC[C@@H]1[C@H](F)C(=O)N[C@@H]1COc1nccc2cc(C(N)=O)c(OC)cc12 [ZIMLOVISERTIB]

% of control ([8]; at 1 µM): 96%
% of control ([8]; at 5 µM): 113%
SMILES: C=CC(=O)Nc1cccc(C(=O)Nc2ccc(Nc3cc(-c4[nH]c(SC)nc4C)ccn3)cc2)c1

SMILES: COc1cc(Nc2nc(C)cc(-c3cnn4nc(OC)ccc34)n2)cc(C(F)(F)F)c1
% of control [9]: 100%

SMILES: O=C(NOC[C@H](O)CO)c1ccc(F)c(F)c1Nc1ccc(I)cc1F
% of control [10]: 50%

SMILES: CCC(=O)N1CCN(c2ccc(-n3c(=O)ccc4cnc5ccc(-c6cnc7ccccc7c6)cc5c43)cc2C(F)(F)F)CC1
% of control [11]: 6.8%
